Reference: US20230192617A1, “AZABICYCLIC(THIO)AMIDES AS FUNGICIDAL COMPOUNDS” (Bayer CropScience Aktiengesellschaft, priority 2020, published 2023)

Legend:
[1] = Measurement of Log P values by HPLC on reversed phase columns (EEC directive 79/831 Annex V.A8); assay type: physicochemical; details: reversed phase HPLC column, method [a]: LC-UV, acidic range, 0.1% formic acid in water and acetonitrile as eluent
Description: A-1.1. Measurement of Log P Values
Measurement of Log P values as provided herein was performed according to EEC directive 79/831 Annex V.A8 by HPLC (High Performance Liquid Chromatography) on reversed phase columns with the following methods:
^[a] Log P value is determined by measurement of LC-UV, in an acidic range, with 0.1% formic acid in water and acetonitrile as eluent (linear gradient from 10% acetonitrile to 95% acetonitrile).
^[b] Log P value is determined by measurement of LC-UV, in a neutral range, with 0.001 molar ammonium acetate solution in water and acetonitrile as eluent (linear gradient from 10% acetonitrile to 95% acetonitrile).
^[c] Log P value is determined by measurement of LC-UV, in an acidic range, with 0.1% phosphoric acid and acetonitrile as eluent (linear gradient from 10% acetonitrile to 95% acetonitrile).
If more than one Log P value is available within the same method, all the values are given and separated by “+”. […]

Alternaria alternata = Alternaria alternata in vitro cell test; assay type: cell-based; details: 120 h, 20 ppm of active ingredient, liquid culture, 5 days incubation, spectrometric measurement of mycelium growth, read-out: efficacy (inhibition of fungal growth)
Description: (§1) B-6. Alternaria alternata In Vitro Cell Test [table] Fungicides were solubilized in DMSO and the solution used to prepare the required range of concentrations. The final concentration of DMSO used in the assay was ≤1%. A spore suspension of A. alternata was prepared and diluted to the desired spore density. Fungicides were evaluated for their ability to inhibit spore germination and mycelium growth in liquid culture assay. The compounds were added in the desired concentration to the culture medium with spores. After 5 days incubation, fungi-toxicity of compounds was determined by spectrometric measurement of mycelium growth. Inhibition of fungal growth was determined by comparing the absorbance values in wells containing the fungicides with the absorbance in control wells without fungicides.

[2] = test system: Colletotrichum lindemuthianum; test: B-8. Colletotrichum lindemuthianum in vitro cell test; assay type: cell-based; details: 144 h, 20 ppm of active ingredient, 6 days incubation, liquid culture, absorbance, read-out: efficacy (inhibition of fungal growth)
Description: as §1, with “B-8. Colletotrichum lindemuthianum In” for “B-6. Alternaria alternata In”, “of C. lindemuthianum” for “of A. alternata”, “inhibit spores” for “inhibit spore”, “After 6” for “After 5”

Pyrenophora teres = test: B-10. Pyrenophora teres in vitro cell test; assay type: cell-based; details: 144 h, 20 ppm of active ingredient, 6 days incubation, liquid culture, absorbance, read-out: efficacy (inhibition of fungal growth)
Description: as §1, with “B-10. Pyrenophora teres” for “B-6. Alternaria alternata”, “P. teres” for “A. alternata”, “6” for “5”

Botrytis cinerea [3] = test: B-11. Botrytis cinerea in vitro cell test; assay type: cell-based; details: 144 h, 20 ppm of active ingredient, 6 days incubation, liquid culture, absorbance, read-out: efficacy (inhibition of fungal growth)
Description: as §1, with “B-11. Botrytis cinerea” for “B-6. Alternaria alternata”, “B. cinerea” for “A. alternata”, “6” for “5”

Alternaria brassicae = test: In vivo preventive test on Alternaria brassicae (leaf spot on radish or cabbage); details: 500 ppm of active ingredient, preventive spray on radish or cabbage, evaluated 3 to 4 days after inoculation, read-out: efficacy
Description: B-1. In Vivo Preventive Test on Alternaria brassicae (Leaf Spot on Radish or Cabbage) [table] The active ingredients were made soluble and homogenized in a mixture of Dimethyl sulfoxide/Acetone/Tween® 80 and then diluted in water to the desired concentration. The young plants of radish or cabbage were treated by spraying the active ingredient prepared as described above. Control plants were treated only with an aqueous solution of Acetone/Dimethyl sulfoxide/Tween® 80. After 24 hours, the plants were contaminated by spraying the leaves with an aqueous suspension of Alternaria brassicae spores. The contaminated radish or cabbage plants were incubated for 3 to 4 days at 20° C. and at 100% relative humidity.

Botrytis cinerea [4] = test: In vivo preventive test on Botrytis cinerea (grey mould); details: 500 ppm of active ingredient, preventive spray on gherkin or cabbage, evaluated 4 to 5 days after inoculation, read-out: efficacy
Description: B-2. In Vivo Preventive Test on Botrytis cinerea (Grey Mould) [table] The active ingredients were made soluble and homogenized in a mixture of Dimethyl sulfoxide/Acetone/Tween® 80 and then diluted in water to the desired concentration. The young plants of gherkin or cabbage were treated by spraying the active ingredient prepared as described above. Control plants were treated only with an aqueous solution of Acetone/Dimethyl sulfoxide/Tween® 80. After 24 hours, the plants were contaminated by spraying the leaves with an aqueous suspension of Botrytis cinerea spores. The contaminated gherkin plants were incubated for 4 to 5 days at 17° C. and at 90% relative humidity. The contaminated cabbage plants were incubated for 4 to 5 days at 20° C. and at 100% relative humidity.

chromatographic logP [1] | Structure (SMILES) | inhibition at 20 ppm (Alternaria alternata) [%] | inhibition at 20 ppm [2] [%] | inhibition at 20 ppm (Pyrenophora teres) [%] | inhibition at 20 ppm (Botrytis cinerea [3]) [%] | pest or weed control at 500 ppm (Alternaria brassicae) [%] | pest or weed control at 500 ppm (Botrytis cinerea [4]) [%]
4.74 | Cc1ccc(C(F)(F)CNC(=O)c2c(Oc3cccc(C(F)(F)F)c3)nnc3cc(F)ccc23)c(C)c1 [I-166] | 90 to 100 | 90 to 100 | 90 to 100 | 90 to 100 | – | –
4.68 | O=C(NCC(F)(F)c1cc(Cl)sc1Cl)c1c(Oc2cccc(C(F)(F)F)c2)nnc2ccccc12 [I-199] | – | – | 90 to 100 | 80 to 89 | – | –
3.6 | Cc1ccc(CCNC(=O)c2c(Oc3cccc(C(F)(F)F)c3)nnc3ccccc23)o1 [I-075] | 90 to 100 | 90 to 100 | 90 to 100 | 90 to 100 | – | –
4.66 | O=C(N[C@H]1CCCc2cc(Br)ccc21)c1c(Oc2cccc(C(F)(F)F)c2)nnc2ccccc12 (racemic) [I-193] | 70 to 79 | 90 to 100 | 90 to 100 | 90 to 100 | – | –
2.74 | Cc1cnn(CCNC(=O)c2c(Oc3cccc(C(F)(F)F)c3)nnc3ccccc23)c1 [I-076] | – | 90 to 100 | 90 to 100 | 90 to 100 | 80 to 89 | –
– | O=C(NCCc1cccc2[nH]ccc12)c1c(Oc2cccc(C(F)(F)F)c2)nnc2ccccc12 [I-161] | – | – | 90 to 100 | 90 to 100 | – | –
4.74 | O=C(C[C@H]1C[C@@]12CCc1cc(Br)ccc12)c1c(Oc2cccc(C(F)(F)F)c2)nnc2ccccc12 (mixture of isomers) [I-097] | 80 to 89 | 90 to 100 | 90 to 100 | 90 to 100 | – | 80 to 89
2.98 | O=C(N[C@H]1CCS(=O)(=O)c2ccccc21)c1c(Oc2cccc(C(F)(F)F)c2)nnc2ccccc12 [I-174] | – | 80 to 89 | 80 to 89 | 90 to 100 | – | –
4.45 | CCc1cccc2c1OCC[C@@H]2NC(=O)c1c(Oc2cccc(C(F)(F)F)c2)nnc2ccccc12 (racemic) [I-168] | – | 90 to 100 | 90 to 100 | 90 to 100 | – | –
4.1 | C[C@H](NC(=O)c1c(Oc2cccc(C(F)(F)F)c2)nnc2ccccc12)c1ccc(Cl)s1 (racemic) [I-080] | 90 to 100 | 90 to 100 | 90 to 100 | 90 to 100 | – | –
4.54 | O=C(N[C@H]1CCCc2ccc(Br)cc21)c1c(Oc2cccc(C(F)(F)F)c2)nnc2ccccc12 (racemic) [I-096] | – | 90 to 100 | 90 to 100 | 90 to 100 | – | –
4.33 | O=C(NC[C@H](F)c1ccc(Cl)c(Cl)c1)c1c(Oc2cccc(C(F)(F)F)c2)nnc2ccccc12 (racemic) [I-182] | 90 to 100 | 80 to 89 | 90 to 100 | 80 to 89 | – | –
4.82 | CC1(C)Cc2cc(Cl)c(F)cc2[C@@H](NC(=O)c2c(Oc3cccc(C(F)(F)F)c3)nnc3ccccc23)C1 (racemic) [I-197] | – | – | 90 to 100 | 90 to 100 | – | –
3.69 | O=C(N[C@H]1CCOc2cc(F)ccc21)c1c(Oc2cccc(C(F)(F)F)c2)nnc2ccccc12 [I-178] | – | 90 to 100 | 90 to 100 | 90 to 100 | 90 to 100 | –
4.33 | O=C(NCCOc1ccc(C(F)(F)F)cc1Cl)c1c(Oc2cccc(C(F)(F)F)c2)nnc2ccccc12 [I-203] | – | – | 90 to 100 | 70 to 79 | – | –
2.78 | Cc1cc(C)n(CCNC(=O)c2c(Oc3cccc(C(F)(F)F)c3)nnc3ccccc23)n1 [I-240] | – | – | 90 to 100 | 80 to 89 | – | –
5.16 | C=C(OCC)c1ccc(C(F)(F)CNC(=O)c2c(Oc3cccc(C(F)(F)F)c3)nnc3ccccc23)c(Cl)c1 [I-169] | – | 80 to 89 | 90 to 100 | 90 to 100 | 90 to 100 | –
3.92 | O=C(N[C@H]1CCCc2sc(C3CC3)nc21)c1c(Oc2cccc(C(F)(F)F)c2)nnc2ccccc12 (racemic) [I-091] | 70 to 79 | 80 to 89 | 90 to 100 | 90 to 100 | – | –
4.44 | O=C(N[C@H]1CCCc2ccc(Cl)cc21)c1c(Oc2cccc(C(F)(F)F)c2)nnc2ccccc12 [I-094] | 70 to 79 | 90 to 100 | 90 to 100 | 90 to 100 | – | –
3.53 | Cc1ccc(C(F)CNC(=O)c2c(Oc3cccc(C(F)F)c3)nnc3c2CCCC3)c(C)c1 (centres unmarked) [I-135] | 90 to 100 | 90 to 100 | 90 to 100 | 90 to 100 | – | –
3.94 | N#Cc1ccc(C(F)(F)CNC(=O)c2c(Oc3cccc(C(F)(F)F)c3)nnc3ccccc23)c(Cl)c1 [I-098] | 80 to 89 | – | 90 to 100 | 90 to 100 | – | 90 to 100
4.44 | Cc1ccc2c(c1)[C@@H](NC(=O)c1c(Oc3cccc(C(F)(F)F)c3)nnc3ccccc13)CC(C)(C)O2 (racemic) [I-173] | – | – | 90 to 100 | 90 to 100 | – | –
4.02 | O=C(N[C@H]1CCSc2ccc(F)cc21)c1c(Oc2cccc(C(F)(F)F)c2)nnc2ccccc12 (racemic) [I-095] | 70 to 79 | 80 to 89 | 90 to 100 | 90 to 100 | – | 90 to 100
3.3 | O=C(NCCc1ccc2[nH]ccc2c1)c1c(Oc2cccc(C(F)(F)F)c2)nnc2ccccc12 [I-249] | – | – | 90 to 100 | 90 to 100 | – | –
